{"source": "patent US10647680B2", "about": "“Urea compound, preparation method therefor and medical use thereof” (Ancureall Pharmaceutical (Shanghai) Co., Ltd., priority 2016, dated 2020)", "type_in_all_cases": "in vitro ADME", "key": {"[1]": {"assay": "Metabolic stability in rat liver microsomes", "details": "rat liver microsome", "method": "The experiment on the compound stability in rat liver microsomes was performed using compound 77 of the present invention as a representative example.\nProcedure: The mixed reaction solution containing reducing coenzyme II (1 mg/ml, Roche 10621706001), rat liver microsomes (0.5 mg/ml, BD Gentest), phosphate buffer (0.1M) and ionized water was prepared according to a certain ratio, and then the reaction solution was placed in a 37° C. water bath and preheated for 2 minutes. A certain amount of compound 77 or reference substance was added to the prepared mixed reaction solution to start the reaction. In the final reaction system, the concentration of compound 77 or the positive control midazolam (National Institutes for Food and Drug Control) was 2 uM, and water was used instead of reducing coenzyme II as a negative control. […] The ratio of mean peak area of compound 77 to the mean peak area of internal standard at each time point was calculated, and the percentage of this ratio to that at time point 0 was calculated, and then change in this percentage was used to indicate the metabolic stability of the compound 77. […]"}, "CYP3A4-M": {"biological_target": "T1, CYP3A4-M (Homo sapiens, UniProt P08684)", "T1 construct": "human liver microsomes (BD Gentest) (0.5 mg/mL); tissue BD Gentest; host or cells: human liver microsomes", "T1 sequence (P08684 whole entry)": "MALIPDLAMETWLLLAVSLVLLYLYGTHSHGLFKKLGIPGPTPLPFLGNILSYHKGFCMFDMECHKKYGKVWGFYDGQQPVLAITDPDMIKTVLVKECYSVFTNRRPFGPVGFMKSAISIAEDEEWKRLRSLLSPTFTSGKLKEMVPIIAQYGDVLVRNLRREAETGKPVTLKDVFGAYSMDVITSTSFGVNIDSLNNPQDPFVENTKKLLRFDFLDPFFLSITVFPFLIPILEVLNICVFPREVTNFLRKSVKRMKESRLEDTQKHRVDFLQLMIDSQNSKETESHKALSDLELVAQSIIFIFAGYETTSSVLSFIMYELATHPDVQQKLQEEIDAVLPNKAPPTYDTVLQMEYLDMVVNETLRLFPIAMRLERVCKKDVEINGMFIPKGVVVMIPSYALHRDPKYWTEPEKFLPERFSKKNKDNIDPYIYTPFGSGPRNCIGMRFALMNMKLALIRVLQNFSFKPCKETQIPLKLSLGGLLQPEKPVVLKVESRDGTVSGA", "assay": "P450 enzyme inhibition, CYP3A4-M (Midazolam)", "details": "human liver microsomes", "method": "(§1) Eight cytochrome p450 enzyme inhibition reactions of human liver microsomes were performed using compound 77 of the present invention as a representative example.\n(§2) The main reaction systems and processes: in 37° C. water bath, the test compounds (7 concentrations, 0, 0.25, 0.5, 5, 10, 25, and 50 uM; the final methanol concentration was 1% in the system), human liver microsomes (BD Gentest) (0.5 mg/mL) and reducing coenzyme II (Roche 10621706001) (1 mg/mL) and the corresponding cytochrome p450 enzyme probe substrate were co-incubated for 5 to 20 minutes. Among them, (1) the probe substrate for CYP1A2 was Phenacetin ([…]) (Sigma), and the selective inhibitor alpha-naphthoflavone (2 uM) (Sigma) was for parallel detection as positive control, and they were incubated for 20 minutes. (2) The probe substrate for CYP2b6 was Bupropion (40 uM) (Sigma) and the selective inhibitor Ticlopidine (10 uM) (Sigma) was for parallel detection as positive control, and they were incubated for 20 minutes. (3) The probe substrate of CYP2C8 was Amodiaquine (1 uM) (Sigma), and the selective inhibitor Montelukast (10 uM) (Sigma) was for parallel detection as positive control, and they were incubated for 20 minutes. (4) The probe substrate for CYP2C9 was Diclofenac (2.5 uM) (Sigma), and the selective inhibitor Sulphaphenazole (10 uM) (Sigma) was for parallel detection as positive control, and they were incubated for 20 minutes. (5) The probe substrate for CYP2C19 was Mephenytoin (40 uM) (Sigma), and the selective inhibitor Ticlopidine (10 uM) (Sigma) was for parallel detection as positive control, and they were incubated for 20 minutes. (6) The probe substrate for CYP2D6 was Dextromethorphan (5 uM) (Sigma), and the selective inhibitor Quinidine (10 uM) (Sigma) was for parallel detection as positive control, and they were incubated for 20 minutes. (7) The probe substrates for CYP3A4-T and CYP3A4-M were Testosterone (5 uM) (Sigma) and Midazolam (5 uM) (Sigma), respectively, and the selective inhibitor was Ketoconazole (1 uM) (Sigma), they were detected in parallel as positive control, and incubated for 5 minutes. The reaction system was quenched by adding methanol containing the corresponding internal standard. The internal standard compound was Tolbutamide (Sigma). The concentration of the corresponding metabolites was determined by LC/MS/MS. For the data analysis, the decrease in peak area of the metabolite of the sample after addition of compound 77 relative to the peak area of the metabolite of the solvent control sample was used to calculate the IC50 (concentration of the test substance at 50% inhibition). The percentages of peak areas of metabolites of CYP1A2, CYP2B6, CYP2C8, CYP2C9, 15CYP2C19, CYP2D6, CYP3A4-T, and CYP3A4-M probe substrates after addition of different concentrations of compound 77 and selective inhibitors relative to the solvent control peak areas were shown in the Table 7."}, "CYP3A4-T": {"biological_target": "T2, CYP3A4-T (Homo sapiens, UniProt P08684)", "T2 construct": "human liver microsomes (BD Gentest) (0.5 mg/mL); tissue BD Gentest; host or cells: human liver microsomes", "T2 sequence (P08684 whole entry)": "as above", "assay": "P450 enzyme inhibition, CYP3A4-T (Testosterone)", "details": "human liver microsomes", "method": "as §1, §2"}, "rat plasma protein": {"system": "rat plasma protein", "assay": "Binding rate to plasma protein of rats (dialysis method)", "method": "The binding rate of compound 77 of the present invention to plasma protein at a rat plasma concentration of 2 uM was evaluated by dialysis method.\nProcedure: The DMSO stock solution of compound 77 (10 mM) or the positive control propranolol (USP) was added to 500 uL of blank plasma. The final concentration of test substance in the plasma was 2 uM, and the final concentration of the positive control was 1 uM, in triplicate. 300 uL of prepared plasma samples was added to the plasma chamber, and 500 uL of dialysis buffer was added to the buffer chamber (phosphate buffer solution PBS contained 100 mM sodium phosphate and 150 mM sodium chloride, PH 7.2), sealed, and incubated for 4 h while shaking at 100 rpm, 37° C. After incubation, 50 uL sample was taken from the plasma chamber and buffer chamber, and 50 uL of PBS was added to plasma chamber samples, and 50 uL of blank plasma was added to the buffer chamber samples. Immediately, 3-fold methanol solution containing internal standard was added, to precipitate plasma protein. After centrifugation, the supernatant was taken for LC/MS/MS analysis. The plasma protein binding rate was calculated according to the following formula: % free state=(peak area ratio in the buffer chamber/the peak area ratio in the plasma chamber)×%, % binding state=100%−% free state."}}, "note": "Values joined by “and” are separate entries in the source; they are usually repeats but may differ in a detail not shown here. Identical values can stand only once."}
{"smiles": "COCCOc1ccc2c(c1)ncn2-c1ccc(NC(=O)Nc2cc(C(C)(C)C)n[nH]2)cc1", "note": "[Compound 77, 1-(5-tert-butyl-2H-pyrazol-3-yl)-3-{4-[5-(2-methoxyl-ethoxyl)-benzimidazol-1-yl]-phenyl}-urea]", "values": [{"measurement": "elimination rate constant", "setting": "[1]; 2 uM", "result": 0.0031}, {"measurement": "half-life at 2 uM", "setting": "[1]; rat liver microsomes", "result": 3.73, "unit": "h"}, {"measurement": "CYP3A4M Remaining %", "setting": "CYP3A4-M; Concentration 0.25 uM", "result": 105.7, "unit": "%"}, {"measurement": "CYP3A4M Remaining %", "setting": "CYP3A4-M; Concentration 0.5 uM", "result": 105.7, "unit": "%"}, {"measurement": "CYP3A4M Remaining %", "setting": "CYP3A4-M; Concentration 5 uM", "result": 105.0, "unit": "%"}, {"measurement": "CYP3A4M Remaining %", "setting": "CYP3A4-M; Concentration 10 uM", "result": 97.3, "unit": "%"}, {"measurement": "CYP3A4M Remaining %", "setting": "CYP3A4-M; Concentration 25 uM", "result": 97.2, "unit": "%"}, {"measurement": "CYP3A4M Remaining %", "setting": "CYP3A4-M; Concentration 50 uM", "result": 84.0, "unit": "%"}, {"measurement": "inhibitory effect on CYP3A4-M", "setting": "CYP3A4-M; Concentration 50 uM", "result": "no significant inhibitory effect"}, {"measurement": "CYP3A4T Remaining %", "setting": "CYP3A4-T; Concentration 0.25 uM", "result": 108.5, "unit": "%"}, {"measurement": "CYP3A4T Remaining %", "setting": "CYP3A4-T; Concentration 0.5 uM", "result": 108.2, "unit": "%"}, {"measurement": "CYP3A4T Remaining %", "setting": "CYP3A4-T; Concentration 5 uM", "result": 104.7, "unit": "%"}, {"measurement": "CYP3A4T Remaining %", "setting": "CYP3A4-T; Concentration 10 uM", "result": 112.5, "unit": "%"}, {"measurement": "CYP3A4T Remaining %", "setting": "CYP3A4-T; Concentration 25 uM", "result": 109.9, "unit": "%"}, {"measurement": "CYP3A4T Remaining %", "setting": "CYP3A4-T; Concentration 50 uM", "result": 101.2, "unit": "%"}, {"measurement": "inhibitory effect on CYP3A4-T", "setting": "CYP3A4-T; Concentration 50 uM", "result": "no significant inhibitory effect"}, {"measurement": "Mean Binding Rate", "setting": "rat plasma protein; Rats, concentration 2 uM", "result": 99.54, "unit": "%"}, {"measurement": "Binding Rate", "setting": "rat plasma protein; Rats, concentration 2 uM, single replicates", "result": "99.46% and 99.58% and 99.60%"}, {"measurement": "binding rate to the rat plasma protein", "setting": "rat plasma protein; dialysis, 4 h, 37° C., test substance 2 uM, positive control 1 uM", "result": 99.54, "unit": "%"}]}
